Like-named read-outs stand apart in the source and are kept apart here.
What was measured:
[1] = Cytotoxicity in HFF cells in parallel to cytomegalovirus assay; details: human
[2] = system: MT-2 cells; experiment: Cytotoxicity in MT-2 cells, flow cytometry cell counts and viability; format: cell-based, human
Experimental: (§1) MT-2 cells were incubated with drug for 72 hrs and harvested. Flow count beads (Beckman Coulter, Miami, Fla.) were added to the cell suspension followed by propidium iodide staining and analysis using flow cytometer and the 50% cytotoxic concentration (CC50) was calculated from the cell counts and viability.

[3] = as above; format: cell-based, human; details: human; MT-2 cells, 72 hrs
Experimental: as §1

[4] = system: Hepatitis B virus; experiment: HBV replication in 2.2.15 cells, HBV DNA blot hybridization
[5] = Toxicity in primary human keratinocyte raft cultures by histology
[6] = Effect of oral compounds on body weight in Balb-c mice; format: in vivo
Experimental: Compounds were administered at the indicated doses by oral gavage daily for 5 days. Weights measured before and on day 6 after 5 doses.

[7] = Cytotoxicity in HFF cells in parallel to HSV-1 assay; details: human
[8] = system: AD169 strain of human cytomegalovirus; experiment: Antiviral effect in HFF cells infected with human cytomegalovirus (AD169)
[9] = Toxicity in HEK 293 cells by trypan blue exclusion (HPV-16 example); format: cell-based; details: human
Experimental: (§2) An origin-containing plasmid was co-transfected with HPV-16 E1 and E2 protein expression vectors into HEK 293 cells. At 4 hr post-transfection, cells were treated with compound dilutions and the cells were incubated for 48 hr. Replication of the virus origin was detected with DpnI and exonuclease III to remove unreplicated input bacterial plasmid DNA. Remaining replicated DNA was quantified by qPCR. Toxicity was determined by trypan blue exclusion.

[10] = human
[11] = in vitro; details: human
[12] = system: HPV-16; experiment: HPV-16 origin replication in HEK 293 cells, qPCR; format: cell-based
Experimental: as §2

[13] = system: MAD-1 strain of JC virus; experiment: Antiviral effect in JC virus (MAD-1) infected COS7 cells, qPCR
[14] = system: BK virus (Gardner strain); experiment: Antiviral effect in HFF cells infected with BK virus (Gardner strain), qPCR
[15] = system: HIV-192US727; experiment: Anti-HIV assay in human PBMC, supernatant reverse transcriptase activity
[16] = African green monkey
[17] = system: Caski (HPV-16); experiment: Antiproliferative activity, neutral red, Caski cervical cancer cells
[18] = Antiproliferative activity, neutral red, normal human fibroblasts
[19] = Toxicity in HEK 293 cells by trypan blue exclusion (HPV-11 example); format: cell-based; details: human
Experimental: as §2, with “HPV-11” for “HPV-16”

[20] = system: HIV-1LAI; experiment: HIV antiviral assay in MT-2 cells, p24 reduction; details: for Selectivity Index: CC50/EC50, MT-2 cells
[21] = system: HPV-11; experiment: HPV-11 origin replication in HEK 293 cells, qPCR; format: cell-based; details: for EC50: HPV-11 origin replication in HEK 293 cells, 48 hr, qPCR
Experimental: as §2, with “HPV-11” for “HPV-16”

[22] = system: Hela (HPV-18); experiment: Antiproliferative activity, neutral red, Hela cervical cancer cells; details: Homo sapiens, 96 h, read-out: Cytotoxic concentration 50% (CC50) Hela (HPV-18)
[23] = system: HPV-18; experiment: Antiviral effect in HPV-18 infected primary human keratinocyte rafts, qPCR
[24] = Cytotoxicity in 2.2.15 cells by neutral red uptake; details: human
[25] = system: human foreskin fibroblast (HFF) cells; experiment: Cytotoxicity in HFF cells in parallel to cytomegalovirus assay; details: HFF cells, in parallel to cytomegalovirus assay
[26] = system: human foreskin fibroblast (HFF) cells; experiment: Cytotoxicity in HFF cells in parallel to HSV-2 assay; details: HFF cells
[27] = system: human foreskin fibroblast (HFF) cells; experiment: Cytotoxicity in HFF cells in parallel to HSV-1 assay; details: HFF cells, in parallel to HSV-1 assay
[28] = system: human foreskin fibroblast (HFF) cells; details: uninfected HFF cells, […]
[29] = system: Human peripheral blood monocyte (PBMC); experiment: Viability of PBMC by XTT reduction; details: human PBMC, XTT reduction
[30] = system: COS7 cells; details: uninfected COS7 cells, […]
[31] = system: human foreskin fibroblast (HFF) cells
[32] = system: Copenhagen strain of vaccinia virus; experiment: microbe, parasite or virus in culture; format: cell-based; details: HFF cells infected with vaccinia virus (Copenhagen), 7 days, crystal violet; read-out: EC50
[33] = system: HEK 293 cells; experiment: Toxicity in HEK 293 cells by trypan blue exclusion (HPV-11 example); format: cell-based
Experimental: as §2, with “HPV-11” for “HPV-16”

CCCCCCCCCCCCCCCCCCOCCOP(=O)(COCCn1cnc2c(=O)[nH]c(N)nc21)OCc1ccccc1 (racemic) [Compound 1, benzyl octadecyloxyethyl 9-(2-phosphonomethoxyethyl)guanine]
CC50 at 14 days [1]: 51500 nM | CC50 ([2]; Homo sapiens, MT2, 72 h, read-out: CC50, 50% Cytotoxic concentration MT2 cells T cell leukemia): 36 ± 40 nM | CC50 at 72 h [3]: 36 ± 40 nM | EC50 ([4]; Hepatitis B virus, 168 h): 440 nM | Selectivity Index ([4]; hepatitis B virus, 2.2.15 cells): >226 | CC50 [5]: 10000 nM | body weight Day 6 ([6]; 4 mg/kg/day oral gavage daily for 5 days): 18.42 ± 1.00 (3) | body weight Day 0 ([6]; 4 mg/kg/day oral gavage, before dosing): 18.63 ± 0.728 (3) | CC50 at 3 days [7]: > 100000 nM | EC50 ([8]; Human betaherpesvirus 5, AD169, HFF, 336 h): < 30 nM | Selectivity Index ([8]; human cytomegalovirus (AD169), HFF cells): >1717 | CC50 [9]: > 10000 nM | CC50 at 14 days [10]: 3060 nM | CC50 [11]: 40 nM | EC50 ([12]; HEK293, HPV-16 origin replication in HEK 293 cells, 48 hr, qPCR, read-out: EC50): 200 nM | Selectivity Index ([12]; HPV-16, HEK 293 cells): >50 | EC50 ([13]; JC polyomavirus, COS-7, 168 h): 70 nM | Selectivity Index ([13]; JC virus (MAD-1), COS7 cells): 911 | Selectivity Index ([14]; BK virus (Gardner strain), HFF cells): >102 | EC50 ([14]; Betapolyomavirus hominis, HFF, 336 h): < 30 nM | Selectivity Index ([15]; HIV-192US727, human PBMC): >4.0 | EC50 ([15]; Human immunodeficiency virus 1, PBMC, 168 h): < 10 nM | CC50 at 7 days [16]: 63800 nM | CC50 ([17]; Homo sapiens, Ca-Ski, 96 h, read-out: Cytotoxic concentration 50% (CC50) Caski (HPV-16)): 4 nM | fold more effective in reducing viable cell number in the cervical cancer lines than in normal, non-transformed human fibroblasts ([17]; cervical cancer lines (Caski, Hela) vs HFF): 3,750 fold | CC50 at 4 days [18]: 15000 nM | CC50 at 48 h [19]: > 100000 nM | Selectivity Index [20]: >3600 | EC50 ([20]; Human immunodeficiency virus 1, MT2, 96 h): < 0.01 nM | EC50 ([21]; HEK293): 490 nM | Selectivity Index ([21]; HPV-11, HEK 293 cells): >204 | CC50 [22]: 9 nM | Selectivity Index ([23]; HPV-18 keratinocyte rafts): 48 | EC50 ([23]; Homo sapiens, Keratinocyte): 210 nM | CC50 at 7 days [24]: > 100000 nM

CCCCCCCCCCCCCCCCCCOC[C@H](COP(=O)(CO[C@H](CO)Cn1ccc(N)nc1=O)OCc1ccccc1)OCc1ccccc1 (stereo partly drawn) [Compound 231, benzyl 1-O-octadecyl-2-O-benzyl-sn-glyceryl 1-(S)-[3-hydroxy-2-(phosphonomethoxy)propyl]cytosine]
CC50 [25]: 19000 nM | CC50 ([2]; MT-2 cells, 72 hrs, read-out: CC50): 22000 ± 3000 nM | CC50 [26]: 34800 nM | CC50 [27]: 88300 nM | EC50 ([8]; HFF cells infected with human cytomegalovirus (AD169), 14 days, crystal violet): < 30 nM | CC50 [28]: 13300 nM | CC50 [29]: 19000 nM | EC50 ([13]; COS7 cells infected with JC virus (MAD-1), 7 days, qPCR): > 20000 nM | EC50 ([14]; HFF cells infected with BK virus (Gardner strain), 14 days, qPCR): < 30 nM | EC50 ([15]; HIV-192US727 infected human PBMC, 7 days, supernatant reverse transcriptase activity): < 300 nM | CC50 [30]: 62600 nM | CC50 [31]: > 100000 nM | EC50 [32]: 230 nM | CC50 [33]: > 10000 nM | Selectivity Index [20]: 10 | EC50 ([20]; HIV-1 infected MT-2 cells, p24 reduction, four days): 2200 ± 2100 nM | EC50 [21]: 1560 nM
